Source: patent US20130196050A1, “SALTY TASTE ENHANCER” (AJINOMOTO CO., INC., priority 2010, published 2013)

Molecular target: T1, Human ENaC δ, β and γ subunit (Homo sapiens, UniProt P51168+P51170+P51172)
T1 construct: expressed in transfected cells; host or cells: Xenopus laevis (African clawed frog) oocytes injected with cRNA
T1 sequence (P51172 1-638 isoform P51172-1): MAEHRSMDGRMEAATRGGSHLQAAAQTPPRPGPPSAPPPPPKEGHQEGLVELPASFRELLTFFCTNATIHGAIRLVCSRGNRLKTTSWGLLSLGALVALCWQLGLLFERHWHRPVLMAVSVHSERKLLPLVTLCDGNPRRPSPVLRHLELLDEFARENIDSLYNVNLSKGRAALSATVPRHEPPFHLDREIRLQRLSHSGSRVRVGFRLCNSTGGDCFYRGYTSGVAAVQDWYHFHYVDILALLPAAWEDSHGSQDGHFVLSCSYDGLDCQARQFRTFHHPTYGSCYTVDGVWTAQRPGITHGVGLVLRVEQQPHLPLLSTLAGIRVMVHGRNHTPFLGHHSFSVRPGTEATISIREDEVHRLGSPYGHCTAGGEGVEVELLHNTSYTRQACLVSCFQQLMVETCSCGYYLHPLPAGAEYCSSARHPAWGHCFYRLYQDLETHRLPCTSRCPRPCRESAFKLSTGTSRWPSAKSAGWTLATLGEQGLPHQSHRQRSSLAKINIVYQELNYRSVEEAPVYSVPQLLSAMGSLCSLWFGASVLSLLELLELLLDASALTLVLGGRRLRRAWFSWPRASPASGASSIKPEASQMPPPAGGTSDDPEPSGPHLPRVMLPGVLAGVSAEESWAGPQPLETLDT
T1 sequence (P51168 1-640): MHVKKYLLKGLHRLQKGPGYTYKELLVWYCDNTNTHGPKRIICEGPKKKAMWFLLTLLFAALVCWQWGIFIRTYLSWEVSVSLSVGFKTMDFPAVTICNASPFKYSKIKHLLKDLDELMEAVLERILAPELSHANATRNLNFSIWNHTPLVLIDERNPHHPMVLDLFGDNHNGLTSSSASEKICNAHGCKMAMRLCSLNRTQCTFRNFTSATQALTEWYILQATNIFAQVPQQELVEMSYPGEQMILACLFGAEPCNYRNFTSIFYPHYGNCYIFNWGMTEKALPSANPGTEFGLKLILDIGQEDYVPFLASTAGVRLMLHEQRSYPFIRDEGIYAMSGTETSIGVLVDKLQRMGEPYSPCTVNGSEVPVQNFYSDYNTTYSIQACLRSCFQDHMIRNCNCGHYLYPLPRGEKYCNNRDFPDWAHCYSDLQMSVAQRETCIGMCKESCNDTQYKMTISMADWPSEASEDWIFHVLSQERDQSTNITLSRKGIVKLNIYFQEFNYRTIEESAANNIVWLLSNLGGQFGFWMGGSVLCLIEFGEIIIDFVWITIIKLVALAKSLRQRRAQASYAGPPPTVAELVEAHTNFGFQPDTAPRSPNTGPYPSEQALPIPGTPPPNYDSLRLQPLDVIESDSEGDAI
T1 sequence (P51170 1-649): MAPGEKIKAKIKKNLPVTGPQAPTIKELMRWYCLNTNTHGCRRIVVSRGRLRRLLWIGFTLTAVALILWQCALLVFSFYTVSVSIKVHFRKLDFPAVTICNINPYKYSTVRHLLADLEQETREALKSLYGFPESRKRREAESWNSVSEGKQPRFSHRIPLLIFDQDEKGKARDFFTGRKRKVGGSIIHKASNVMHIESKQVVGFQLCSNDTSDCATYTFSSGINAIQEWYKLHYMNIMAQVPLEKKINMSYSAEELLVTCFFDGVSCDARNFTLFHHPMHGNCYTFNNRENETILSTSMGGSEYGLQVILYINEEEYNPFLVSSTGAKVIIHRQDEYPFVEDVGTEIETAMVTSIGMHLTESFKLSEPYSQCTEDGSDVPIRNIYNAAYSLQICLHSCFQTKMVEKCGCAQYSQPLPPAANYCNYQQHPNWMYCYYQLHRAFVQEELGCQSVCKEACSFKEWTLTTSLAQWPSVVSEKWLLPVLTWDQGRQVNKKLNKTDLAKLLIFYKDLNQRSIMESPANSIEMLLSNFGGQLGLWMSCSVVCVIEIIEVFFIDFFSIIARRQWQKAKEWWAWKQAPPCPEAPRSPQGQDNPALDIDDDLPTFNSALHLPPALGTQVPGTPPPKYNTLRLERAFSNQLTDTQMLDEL
Test: Measurement of ENaC activation potency (two electrode voltage clamp current in ENaC-expressing oocyte)
Format: cell-based
Procedure, shortened: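 Xenopus oocytes were injected with human ENaC δ, β and γ cRNA, cultured 16–72 h, and voltage-clamped by two-electrode clamp at −30 mV below resting potential in ND96 (pH 7.6) perfusion. Compounds (0.1 nM–300 μM) were added in rising concentrations at 3-min intervals. MED was the first concentration raising current by ≥10% over pre-addition current.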

With `O=C(NCCc1c[nH]c2ccc(O)cc12)c1c(O)cccc1O` [Example 35, 2,6-dihydroxy-N-(2-(5-hydroxy-1H-indol-3-yl)ethyl)benzamide] the “concentration from which the ENaC activation current starts to increase” value (FIG. 3) was 0.00001 g/dL, the “concentration at which the ENaC activation current reaches the maximum current value” (FIG. 3, almost constant up to 0.0080 g/dl) was 0.0020 g/dL and the “MED value (minimum effective dose)” value (lowest concentration increasing the current value by not less than 10% vs before addition) was 0.1 to 0.3 µM.
